In one assay the target is T1, ROCK-II (Homo sapiens, UniProt O75116).
T1 construct: purchased Promega, USA
Description: ROCK-II inhibition assay (ADP-Glo Kinase Assay, ROCK2 Kinase assay). The class given is biochemical. Particulars: for inhibition at 0.01 µg/mL / inhibition at 0.1 µg/mL / inhibition at 1 µg/mL / inhibition at 10 µg/mL: read-out: % of inhibition of ROCK-II ± SD. As to the method: A vehicle control for 5% DMSO was used in the assay to check the interference. Standard curve for ROCK-II enzyme was done (Figure 2). Serial dilution and IC50 of the AE was performed in triplicate.
The assay was repeated as mentioned in Section 2.3 on the AE fractions and the isolates T1-T8.
The assay performance measure was used to validate the screening assay quality through calculation of Z-factor according to methodology of Zhang et al., 1999 [18].
Enzyme inhibition by tested samples is expressed as mean ± SD and analyzed using Prism program version 6 (GraphPad Software, Inc., San Diego CA); comparisons among tested samples were carried out using one-way analysis of variance (ANOVA) followed by Bonferroni's multiple comparisons test. P ‹ 0.05 was considered significant.
For orientation: ADP-Glo turns the ADP formed in a reaction into a luminescent signal.

A further assay relates to testosterone production. Set-up: method as in PMID 26978330. The following applies: cited from earlier work.
Another assay concerns aromatase enzyme. Set-up: method as in PMID 23810842. Particulars: Leydig cells, transformation of testosterone to estrogen; cited from earlier work.
The next assay deals with phosphodiesterase. Set-up: method as in PMID 23810842. The following applies: high concentration; cited from earlier work.
Where [1] appears, read: mean ± SD, triplicates, read-out: IC50 (converted).

Where two headings read alike, the source gives them in different places.

T1 sequence (O75116 whole entry): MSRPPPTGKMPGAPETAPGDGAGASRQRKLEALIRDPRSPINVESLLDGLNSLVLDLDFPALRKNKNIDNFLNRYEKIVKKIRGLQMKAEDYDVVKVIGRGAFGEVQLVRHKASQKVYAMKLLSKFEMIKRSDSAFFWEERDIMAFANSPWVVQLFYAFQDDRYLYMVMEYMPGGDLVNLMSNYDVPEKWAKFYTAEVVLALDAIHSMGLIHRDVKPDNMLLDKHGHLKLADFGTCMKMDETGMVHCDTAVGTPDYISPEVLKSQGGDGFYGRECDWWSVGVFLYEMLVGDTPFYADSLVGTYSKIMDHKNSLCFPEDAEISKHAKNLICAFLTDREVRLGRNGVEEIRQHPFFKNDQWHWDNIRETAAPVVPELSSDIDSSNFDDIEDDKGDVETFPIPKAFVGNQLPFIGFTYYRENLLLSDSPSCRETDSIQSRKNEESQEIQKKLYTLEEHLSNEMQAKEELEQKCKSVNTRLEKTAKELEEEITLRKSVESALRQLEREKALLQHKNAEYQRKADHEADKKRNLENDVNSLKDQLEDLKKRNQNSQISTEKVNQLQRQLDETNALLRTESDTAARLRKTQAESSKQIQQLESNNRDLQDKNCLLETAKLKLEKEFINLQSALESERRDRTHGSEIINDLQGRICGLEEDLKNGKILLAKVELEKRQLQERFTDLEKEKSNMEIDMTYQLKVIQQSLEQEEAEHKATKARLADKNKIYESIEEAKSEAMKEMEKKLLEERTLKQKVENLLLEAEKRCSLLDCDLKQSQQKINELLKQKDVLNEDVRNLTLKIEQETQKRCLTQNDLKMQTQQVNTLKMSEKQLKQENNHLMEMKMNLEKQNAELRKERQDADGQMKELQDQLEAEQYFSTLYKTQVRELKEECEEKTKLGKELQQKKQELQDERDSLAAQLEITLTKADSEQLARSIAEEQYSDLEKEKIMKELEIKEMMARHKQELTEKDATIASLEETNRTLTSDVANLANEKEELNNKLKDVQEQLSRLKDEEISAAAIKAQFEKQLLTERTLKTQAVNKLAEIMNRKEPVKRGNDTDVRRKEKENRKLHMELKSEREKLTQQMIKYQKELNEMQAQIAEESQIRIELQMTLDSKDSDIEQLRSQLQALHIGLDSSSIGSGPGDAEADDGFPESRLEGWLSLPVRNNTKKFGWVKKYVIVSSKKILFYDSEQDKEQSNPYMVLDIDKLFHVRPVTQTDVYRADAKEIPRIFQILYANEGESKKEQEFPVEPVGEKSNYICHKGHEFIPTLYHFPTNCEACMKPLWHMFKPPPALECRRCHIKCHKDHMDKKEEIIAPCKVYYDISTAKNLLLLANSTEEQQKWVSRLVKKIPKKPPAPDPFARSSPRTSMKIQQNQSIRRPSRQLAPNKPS

On to `COc1cc(/C=C/C=O)ccc1O` [Compound T2, trans-coniferyl aldehyde], for which, on ROCK-II (concentration 0.01 µg/ml), the inhibition at 0.01 µg/mL was determined as 10.6 ± 2.94%. For the same compound, on ROCK-II (concentration 0.1 µg/ml), the inhibition at 0.1 µg/mL was 33.2 ± 1.55%. In addition, the inhibition at 1 µg/mL on ROCK-II (concentration 1 µg/ml) turned out to be 68.5 ± 0.35%. Also, the inhibition at 10 µg/mL at ROCK-II (concentration 10 µg/ml) was 82.1 ± 0.63%. Moreover, the IC50 at ROCK-II (setting [1]) was 2.01 µM.

On to eurycomanone [Compound T6], for which the “% of inhibition of ROCK-II ± SD” value is 5.4 ± 3.74% on ROCK-II (concentration 0.01 µg/ml), 26.4 ± 2.61∗ % on ROCK-II (concentration 0.1 µg/ml), 57.1 ± 0.56∗ % at ROCK-II (concentration 1 µg/ml) and 78.3 ± 0.38∗ % at ROCK-II (concentration 10 µg/ml). On ROCK-II (mean ± SD, triplicates), the IC50 was 677 ± 51.1∗ ng/ml. In addition, the testosterone production entry with testosterone production is “induce testosterone production”. Further, the aromatase enzyme inhibition entry in the assay on aromatase enzyme is recorded as “aromatase enzyme inhibition”. The effect on phosphodiesterase result in the assay on phosphodiesterase is reported as “inhibitory effect”.

For `COc1cc2ccc(=O)oc2cc1O` [Compound T3, scopoletin], the inhibition at 0.01 µg/mL on ROCK-II (concentration 0.01 µg/ml) turned out to be 10.1 ± 3.34%. Besides, the inhibition at 0.1 µg/mL on ROCK-II (concentration 0.1 µg/ml) worked out at 25 ± 2.47%. Further, the inhibition at 1 µg/mL at ROCK-II (concentration 1 µg/ml) was 66.15 ± 0.07%. Further, the inhibition at 10 µg/mL on ROCK-II (concentration 10 µg/ml) is 77.1 ± 0.11%. In addition, the IC50 on ROCK-II (setting [1]) was 2.73 µM.

For the compound `C[C@@H](N)[C@H]1CC[C@H](C(=O)Nc2ccncc2)CC1.Cl.Cl` (relative stereo) [Compound Y-27632, (+)-(R)-trans-4-(1-aminoethyl)-N-(4-pyridyl)cyclohexanecarboxamide dihydrochloride, reference compound], the “% of inhibition of ROCK-II ± SD” value at ROCK-II (concentration 0.01 µg/ml) is given as 22.5 ± 1.27∗ %; on ROCK-II (concentration 0.1 µg/ml), 42.15 ± 2.19∗ %; at ROCK-II (concentration 1 µg/ml), 68.15 ± 2.75∗ %; on ROCK-II (concentration 10 µg/ml) it was 89.9± 0.42∗ %. Besides, the “inhibition for ROCK-II activity” value against ROCK-II (concentrations 1-10 μg/ml) is listed as 68.15-89.9%.

As to `CC1=CC(=O)[C@@H](O)[C@@]2(C)[C@H]1CC(=O)[C@@]1(C)[C@H]3C(=O)O[C@H]([C@@H]3C)[C@H](O)[C@@H]12` [Compound T4, eurycomalactone], at ROCK-II, it took 2.28 µM to reach half-maximal inhibition (IC50), the inhibition at 0.01 µg/mL is 6.13 ± 0.44%, the inhibition at 0.1 µg/mL worked out at 25.7 ± 2.47% and the inhibition at 1 µg/mL amounted to 54 ± 0.42%. On ROCK-II, the inhibition at 10 µg/mL amounted to 76.2 ± 3.53%.

In the case of `CC[C@H](/C=C/[C@@H](C)[C@H]1CC[C@H]2[C@@H]3CC=C4C[C@@H](O)CC[C@]4(C)[C@H]3CC[C@]12C)C(C)C` [Compound T1, stigmasterol], the IC50 on ROCK-II (setting [1]) is 14.9 µM. On ROCK-II, the inhibition at 0.01 µg/mL was found to be 2.78 ± 1.84%, the inhibition at 0.1 µg/mL amounted to 13.3 ± 2.26%, the inhibition at 1 µg/mL is 27.4 ± 2.47% and the inhibition at 10 µg/mL is 60.3 ± 0.14%.

On to `C=C1C(O)C2(O)OCC34C(CC5C(C)=CC(OC6OC(CO)C(O)C(O)C6O)C(O)C5(C)C23)OC(=O)C(O)C14O` [Compound T8, eurycomanol-2-O-β-D-glycopyranoside], for which, on ROCK-II, the midpoint of inhibition, the IC50, lay at 2.52 µM; the inhibition at 0.01 µg/mL was found to be 4.06 ± 3.8%; the inhibition at 0.1 µg/mL was determined as 17 ± 0.77%; the inhibition at 1 µg/mL was 46.5 ± 1.62%. Moreover, the inhibition at 10 µg/mL at ROCK-II is 71.4 ± 2.54%.

Broadly, the inhibition is how much of the control response was suppressed. In general, IC50 refers to the concentration that inhibits the measured activity by half.
